From US5279812A, “Radiolabeled anticoagulant peptides” (Merrell Dow Pharmaceuticals Inc., priority 1991, dated 1994)

Target: T1, Bovine thrombin (Bos taurus, UniProt P00735)
T1 construct: Bovine thrombin was titrated to an appropriate concentration
Assay: thrombin induced fibrin clot inhibition assay
Assay type: biochemical
Conditions: read-out: In vitro potency
Description: Samples were tested in a thrombin induced fibrin clot inhibition assay. All the solutions of the assay were made with an assay buffer containing 0.12 M sodium chloride, 0.01 M sodium phosphate, 0.01% sodium azide and 0.1% bovine serum albumin, pH 7.4. […] This solution of thrombin (50 ul; 0.2 pmol) was added to the wells of a microtiter plate containing 50 ul of a solution of the synthetic peptide being tested. […] The turbidity of the solution was monitored by the autoreader at 5 min intervals. […] For the assays using human or bovine thrombin, thrombin was titrated to concentrations that gave the fibrin clot at the same rate over a 30 min period.

How did the IC50 turn out when `CC[C@H](C)[C@H](NC(=O)[C@@H]1CCCN1C(=O)[C@H](CCC(=O)O)NC(=O)[C@H](Cc1cc(I)c(O)c(I)c1)NC(=O)CCC(=O)O)C(=O)N1CCC[C@H]1C(=O)N[C@@H](CCC(=O)O)C(=O)N[C@@H](CCC(=O)O)C(=O)N[C@@H](C)C(=O)N[C@@H](CC1CCCCC1)C(=O)N[C@H](CCC(=O)O)C(=O)O` [Example 1] was run?
The IC50 was < 25 µM.
